tested on: phosphorylation of AKT on Ser473 (PI3K pathway) in T-47D (heterozygous PIK3CA H1047R) cell line; experiment: PI3K pathway activation assay (pAKT Ser473 HTRF), T-47D cells; type: cell-based; settings: Homo sapiens, T47D, 2 h, read-out: T47D pAKT IC50
Method: The inhibitory activity of the compounds of the disclosure was evaluated by measuring phosphorylation of AKT on Ser473 as a readout of the PI3K pathway using HTRF (CisBio catalog number: 64AKSPE). These studies were conducted in the T-47D (heterozygous PIK3CA H1047R) and SKBR3 (PIK3CA WT) cell lines. Cells were maintained in a 37° C. incubator at 5% CO2 in the following media: T-47D: RPMI 1640, ATCC© Modification (Gibco, A10491-01) supplemented with 10% v/v FBS (Gibco, 26140-079), 1% penicillin streptomycin (Gibco, 15140-122), and 7.4 ug/mL insulin (MilliporeSigma, I9278); SKBR3: McCoy's 5a (Modified) Medium (Gibco, 16600-082) supplemented with 10% v/v FBS (Gibco, 26140-079). Cells were seeded in 384-well plates at a density of 4,000 cells/well. Compounds dissolved in DMSO were added using a digital dispense (D300E, Tecan) 10-point serial dilution. After two hours of treatment, cells were lysed for thirty minutes and then incubated with detection reagents per HTRF kit material and manufacturer's instructions. Fluorescence signal was measured with a multimode plate reader (Envision 2105, Perkin Elmer). Fluorescent signal was normalized to background and DMSO controls to obtain percent inhibition/activity for each compound.

Structure (SMILES) | IC50 [nM]
Cc1cc([C@@H](C)Nc2ccc(Cl)nc2C(=O)O)nc(N2C(=O)OC[C@@H]2Cc2ccccc2Br)c1 [Example 22, 3-(((R)-1-(6-((S)-4-(2-Bromobenzyl)-2-oxooxazolidin-3-yl)-4-methylpyridin-2-yl)ethyl)amino)-6-chloropicolinic acid] | 100 to 1000

same assay, conditions: Homo sapiens, T47D, 2 h; T-47D (heterozygous PIK3CA H1047R) cells, two hours of treatment, pAKT Ser473 HTRF; read-out: T47D pAKT IC50

Structure (SMILES) | IC50 [nM]
Cc1cc(C(C)Nc2ccc(Cl)nc2C(=O)O)cc(N2C(=O)OC[C@@H]2Cc2ccccc2)c1 (single isomer, unassigned) [Example 2] | 100 to 1000
Cc1cc(C(C)Nc2cccnc2C(=O)O)nc(N2C(=O)OC[C@@H]2Cc2ccccc2)c1 (single isomer, unassigned) [Example 13] | 100 to 1000
Cc1cc(C(C)Nc2ccc(C(F)(F)F)nc2C(=O)O)nc(N2C(=O)OC[C@@H]2Cc2ccccc2)c1 (single isomer, unassigned) [Example 15] | 1000 to 10000
COc1ccc(NC(C)c2cc(C)cc(N3C(=O)OC[C@@H]3Cc3ccccc3)n2)c(C(=O)O)n1 (single isomer, unassigned) [Example 16] | 100 to 1000
Cc1cc(C(C)Nc2ccc(Cl)nc2C(=O)O)cc(N2C(=O)OC[C@@H]2Cc2ccccc2)c1 (stereo partly drawn) [Example 1, 3-((1-(3-((S)-4-Benzyl-2-oxooxazolidin-3-yl)-5-methylphenyl)ethyl)amino)-6-chloropicolinic acid] | 100 to 1000
CC(Nc1ccc(Cl)nc1C(=O)O)c1cc(F)cc(N2C(=O)OC[C@@H]2Cc2ccccc2)c1 (stereo partly drawn) [Example 4, 3-((1-(3-((S)-4-Benzyl-2-oxooxazolidin-3-yl)-5-fluorophenyl)ethyl)amino)-6-chloropicolinic acid] | 100 to 1000
CC(Nc1ccc(F)nc1C(=O)O)c1cc(F)cc(N2C(=O)OC[C@@H]2Cc2ccccc2)c1 (stereo partly drawn) [Example 5, 3-((1-(3-((S)-4-Benzyl-2-oxooxazolidin-3-yl)-5-fluorophenyl)ethyl)amino)-6-fluoropicolinic acid] | 100 to 1000
CC(Nc1ccc(Cl)nc1C(=O)O)c1cc(Cl)cc(N2C(=O)OC[C@@H]2Cc2ccccc2)c1 (stereo partly drawn) [Example 6, 3-((1-(3-((S)-4-Benzyl-2-oxooxazolidin-3-yl)-5-chlorophenyl)ethyl)amino)-6-chloropicolinic acid] | 100 to 1000
CC(Nc1ccc(F)nc1C(=O)O)c1cc(Cl)cc(N2C(=O)OC[C@@H]2Cc2ccccc2)c1 (stereo partly drawn) [Example 7, 3-((1-(3-((S)-4-Benzyl-2-oxooxazolidin-3-yl)-5-chlorophenyl)ethyl)amino)-6-fluoropicolinic acid] | 100 to 1000
C[C@@H](Nc1ccc(Cl)nc1C(=O)O)c1cc(F)cc(N2C(=O)OC[C@@H]2Cc2ccccc2)c1 [Example 10, 3-(((R)-1-(3-((S)-4-Benzyl-2-oxooxazolidin-3-yl)-5-fluorophenyl)ethyl)amino)-6-chloropicolinic acid] | < 100
Cc1cc([C@@H](C)Nc2ccc(Cl)nc2C(=O)O)nc(N2C(=O)OC[C@@H]2Cc2ccc(C(=O)OC(C)(C)C)cc2)c1 [Example 25, 3-(((R)-1-(6-((S)-4-(4-(tert-Butoxycarbonyl)benzyl)-2-oxooxazolidin-3-yl)-4-methylpyridin-2-yl)ethyl)amino)-6-chloropicolinic acid] | 100 to 1000
Cc1cc([C@@H](C)Nc2ccc(Cl)nc2C(=O)O)nc(N2C(=O)OC[C@@H]2Cc2ccncc2)c1 [Example 28, 6-Chloro-3-(((R)-1-(4-methyl-6-((S)-2-oxo-4-(pyridin-4-ylmethyl)oxazolidin-3-yl)pyridin-2-yl)ethyl)amino)picolinic acid] | 100 to 1000
Cc1cc([C@@H](C)Nc2ccc(Cl)nc2C(=O)O)nc(N2C(=O)OC[C@@H]2Cc2cccc3ccccc23)c1 [Example 31, 6-Chloro-3-(((R)-1-(4-methyl-6-((S)-4-(naphthalen-1-ylmethyl)-2-oxooxazolidin-3-yl)pyridin-2-yl)ethyl)amino)picolinic acid] | 100 to 1000
Cc1cc([C@@H](C)Nc2ccc(Cl)nc2C(=O)O)nc(N2C(=O)OC[C@@H]2Cc2ccnn2C)c1 [Example 34, 6-Chloro-3-(((R)-1-(4-methyl-6-((S)-4-((1-methyl-1H-pyrazol-5-yl)methyl)-2-oxooxazolidin-3-yl)pyridin-2-yl)ethyl)amino)picolinic acid] | 100 to 1000
Cc1cc([C@@H](C)Nc2ccc(Cl)nc2C(=O)O)nc(N2C(=O)OC[C@@H]2Cc2cn(C)nc2C)c1 [Example 35, 6-Chloro-3-(((R)-1-(6-((S)-4-((1,3-dimethyl-1H-pyrazol-4-yl)methyl)-2-oxooxazolidin-3-yl)-4-methylpyridin-2-yl)ethyl)amino)picolinic acid] | 100 to 1000
Cc1cc([C@@H](C)Nc2ccc(Cl)nc2C(=O)O)nc(N2C(=O)OC[C@@H]2Cc2cn(C)nc2F)c1 [Example 36, 6-Chloro-3-(((R)-1-(6-((S)-4-((3-fluoro-1-methyl-1H-pyrazol-4-yl)methyl)-2-oxooxazolidin-3-yl)-4-methylpyridin-2-yl)ethyl)amino)picolinic acid] | 100 to 1000
Cc1cc([C@@H](C)Nc2ccc(Cl)nc2C(=O)O)nc(N2C(=O)OC[C@@H]2Cc2cn(C)c3ccccc23)c1 [Example 37, 6-Chloro-3-(((R)-1-(4-methyl-6-((S)-4-((1-methyl-1H-indol-3-yl)methyl)-2-oxooxazolidin-3-yl)pyridin-2-yl)ethyl)amino)picolinic acid] | < 100
Cc1cc([C@@H](C)Nc2ccc(Cl)nc2C(=O)O)nc(N2C(=O)OC[C@@H]2Cc2cn(C)c3ncccc23)c1 [Example 39, 6-Chloro-3-(((R)-1-(4-methyl-6-((S)-4-((1-methyl-1H-pyrrolo[2,3-b]pyridin-3-yl)methyl)-2-oxooxazolidin-3-yl)pyridin-2-yl)ethyl)amino)picolinic acid] | < 100

Continued, values first:

IC50 [nM] | Structure (SMILES)
100 to 1000 | Cc1cc(C(C)Nc2ccc(C)nc2C(=O)O)nc(N2C(=O)OC[C@@H]2Cc2ccccc2)c1 (single isomer, unassigned) [Example 14]
100 to 1000 | Cc1cc(C(C)Nc2ccc(F)nc2C(=O)O)cc(N2C(=O)OC[C@@H]2Cc2ccccc2)c1 (stereo partly drawn) [Example 3, 3-((1-(3-((S)-4-Benzyl-2-oxooxazolidin-3-yl)-5-methylphenyl)ethyl)amino)-6-fluoropicolinic acid]
1000 to 10000 | CC(Nc1ccc(F)nc1C(=O)O)c1cc(N2C(=O)OC[C@@H]2Cc2ccccc2)cc(C(F)(F)F)c1 (stereo partly drawn) [Example 8, 3-((1-(3-((S)-4-Benzyl-2-oxooxazolidin-3-yl)-5-(trifluoromethyl)phenyl)ethyl)amino)-6-fluoropicolinic acid]
1000 to 10000 | Cc1cc([C@@H](C)Nc2ccc(Cl)nc2C(=O)O)cc(N2C(=O)OC[C@@H]2Cc2ccc(Br)cc2)c1 [Example 9, 3-(((R)-1-(3-((S)-4-(4-Bromobenzyl)-2-oxooxazolidin-3-yl)-5-methylphenyl)ethyl)amino)-6-chloropicolinic acid]
1000 to 10000 | Cc1cc(C(C)Nc2ccccc2C(=O)O)nc(N2C(=O)OC[C@@H]2Cc2ccccc2)c1 (stereo partly drawn) [Example 17, 2-((1-(6-((S)-4-Benzyl-2-oxooxazolidin-3-yl)-4-methylpyridin-2-yl)ethyl)amino)benzoic acid]
1000 to 10000 | Cc1cc(C(C)Nc2ccc(C#N)nc2C(=O)O)nc(N2C(=O)OC[C@@H]2Cc2ccccc2)c1 (stereo partly drawn) [Example 19, 3-((1-(6-((S)-4-Benzyl-2-oxooxazolidin-3-yl)-4-methylpyridin-2-yl)ethyl)amino)-6-cyanopicolinic acid]
100 to 1000 | Cc1cc([C@@H](C)Nc2ccc(Cl)nc2C(=O)O)nc(N2C(=O)OC[C@@H]2Cc2cc(C)ncc2F)c1 [Example 30, 6-Chloro-3-(((R)-1-(6-((S)-4-((5-fluoro-2-methylpyridin-4-yl)methyl)-2-oxooxazolidin-3-yl)-4-methylpyridin-2-yl)ethyl)amino)picolinic acid]
100 to 1000 | Cc1cc([C@@H](C)Nc2ccc(Cl)nc2C(=O)O)nc(N2C(=O)OC[C@@H]2Cc2cnn(C)c2)c1 [Example 32, 6-Chloro-3-(((R)-1-(4-methyl-6-((S)-4-((1-methyl-1H-pyrazol-4-yl)methyl)-2-oxooxazolidin-3-yl)pyridin-2-yl)ethyl)amino)picolinic acid]
100 to 1000 | Cc1cc([C@@H](C)Nc2ccc(Cl)nc2C(=O)O)nc(N2C(=O)OC[C@@H]2Cc2ccn(C)n2)c1 [Example 33, 6-Chloro-3-(((R)-1-(4-methyl-6-((S)-4-((1-methyl-1H-pyrazol-3-yl)methyl)-2-oxooxazolidin-3-yl)pyridin-2-yl)ethyl)amino)picolinic acid]
100 to 1000 | Cc1cc([C@@H](C)Nc2ccc(Cl)nc2C(=O)O)nc(N2C(=O)OC[C@@H]2Cc2nn(C)c3ccccc23)c1 [Example 38, 6-Chloro-3-(((R)-1-(4-methyl-6-((S)-4-((1-methyl-1H-indazol-3-yl)methyl)-2-oxooxazolidin-3-yl)pyridin-2-yl)ethyl)amino)picolinic acid]

same assay, conditions: T-47D (heterozygous PIK3CA H1047R) cells, two hours of treatment, pAKT Ser473 HTRF; read-out: T47D pAKT IC50

IC50 [nM] | Structure (SMILES)
< 100 | Cc1cc([C@@H](C)Nc2ccc(Cl)nc2C(=O)O)nc(N2C(=O)OC[C@@H]2Cc2ccn3nccc3c2)c1 [Example 40, 6-Chloro-3-(((R)-1-(4-methyl-6-((S)-2-oxo-4-(pyrazolo[1,5-α]pyridin-5-ylmethyl)oxazolidin-3-yl)pyridin-2-yl)ethyl)amino)picolinic acid]
